Among the data in US20230348495A1, “A COMPOUND HAVING INHIBITORY ACTIVITY AGAINST KRAS G12D MUTATION” (TAIHO PHARMACEUTICAL CO., LTD., priority 2019, published 2023) are IC50 values, retold here.

The subject of assay [1] is KRAS-G12D mutant cell line (A-427). As to the kind of experiment: Growth inhibition activity on KRAS-G12D mutant cell line (A-427), CellTiter-Glo 3D. In kind it is cell-based. Particulars: Homo sapiens, 72 h, A-427 cells, 3-day culture with compound, read-out: A427 CTX IC50. The procedure:
Test Example 2: A measurement test of growth inhibition activity on KRAS-G12D mutant cell line (A-427) (in vitro) A-427 cells (ATCC, Cat #: HTB-53), which are a KRAS-G12D mutant human lung cancer cell line, were suspended in a 10% fetal bovine serum-containing E-MEM medium (manufactured by Fujifilm Wako Pure Chemical Corporation). The cell suspension was seeded into each well of a 384-well U bottom microplate and cultured in an incubator containing 5% CO2 gas at 37° C. for 1 day.
The compound of the present invention was dissolved in DMSO, and the test compound was diluted with DMSO to give a concentration 500 times the final concentration. The solution of the test compound in DMSO was diluted with the medium used for suspending cells and added to each well of the cell-culture plate to give a DMSO final concentration of 0.2%, followed by culture in an incubator containing 5% CO2 gas at 37° C. for another 3 days. The cell count after a 3-day culture in the presence of the compound was measured using CellTiter-Glo 3D Reagent (manufactured by Promega Corporation).
All wells were added with CellTiter-Glo 3D Reagent and mixed for 10 minutes. 30 minutes after mixing, luminescence was measured by a plate reader. The growth inhibition rate was calculated from the following equation, and the concentration of the test compound at which 50% inhibition was achieved (IC50 (μM)) was determined.
Growth Inhibition Rate(%)=(C−T)/(C)×100
T: the emission intensity in a well into which a test compound was added.
C: the emission intensity in a well into which a test compound was not added.

A further assay addresses KRAS G12D (Homo sapiens (Human), UniProt P01116, G12D). As to the kind of experiment: Inhibitory activity on KRAS G12D nucleotide (GDP-GTP) exchange reaction in vitro (SOS1-dependent, BODIPY FL GDP). Particulars: BODIPY FL GDP-bound KRAS G12D, compound 25° C. 1 hour, then SOS1 and GMPPNP 30 minutes. In kind it is biochemical. The text has this:
Test Example 1: Evaluation of inhibitory activity of compounds on KRAS G12D nucleotide (GDP-GTP) exchange reaction in vitro
Recombinant KRAS G12D (conjugated N-terminus His6-tag, TEV protease cleavage site and KRAS G12D residues 1-169 (SEQ ID NO: 1), prepared by the method described as below) and cleaved recombinant SOS1 (residues 564-1049(SEQ ID NO: 2), prepared by the method as below) proteins were expressed in E. coli and purified by affinity chromatography.
To prepare the recombinant KRAS G12D, the codon-optimized DNA sequence for the recombinant KRAS G12D (conjugated N-terminus His6-tag, TEV protease cleavage site and KRAS G12D residues 1-169 (SEQ ID NO: 3))was synthesized by GeneArt Technology (Life Technologies, Carlsbad, CA, US). The construct was subcloned into the expression vector pET28a and transformed into Escherichia coli BL21 (DE3) strains (Novagen, Madison, WI, US).
The transformed strain was cultivated in 2 L Luria Broth medium with 25 μg/mL kanamycin at a temperature of 37° C. to a density of 0.6 (OD600), then induced for expression with […] IPTG and further cultivated for 4 h. The cell pellet was resuspended in ice-cold lysis buffer containing 50 mM Tris-HCl (pH 7.5), 200 mM NaCl, and 100 μM TCEP (tris(2-carboxyethyl)phosphine).
After sonication, the disrupted debris was removed by centrifugation. The supernatant was applied on to Ni-NTA affinity gels, and the recombinant human KRAS (G12D) eluted fraction was collected. The buffer of the collected fraction was exchanged to the buffer containing 50 mM Tris-HCl (pH 7.5), 200 mM NaCl, 10% Glycerol, and 5 mM DTT by PD-10 column (GE-Healthcare, Chicago, IL, US).
To prepare the cleaved recombinant SOS1, the codon optimized DNA sequences for the recombinant SOS1 (residues 564-1049 with a conjugated N-terminus His6-tag and TEV protease cleavage site (SEQ ID NO: 4)) was synthesized by GeneArt Technology (Life Technologies). The construct was subcloned into the expression vector pET28a and transformed into Escherichia coli BL21 (DE3) strains (Novagen, Madison, WI, USA).
The transformed strain was cultivated in 2 L Terrific Broth medium with 25 μg/mL kanamycin at a temperature of 37° C. to a density of 0.8 (OD600), then shifted to a temperature of 16° C., induced for expression with […] IPTG, and further cultivated for 16 h. The cell pellet was resuspended in ice-cold lysis buffer containing 50 mM Tris-HCl (pH 7.5), 200 mM NaCl, and 100 μM TCEP.
After sonication, the disrupted debris was removed by centrifugation. The supernatant was applied on to Ni-NTA affinity gels, and the recombinant human SOS1 eluted fraction was collected. Then, His6-tagged TEV protease was added to the collected fraction, dialyzed with the ice-cold lysis buffer for 16 h at a temperature of 4° C., and applied on to Ni-NTA affinity gels. The flow-through fraction containing the tag-cleavaged recombinant human SOS1 was collected. The buffer of the collected fraction was exchanged to the buffer containing 50 mM Tris-HCl (pH 7.5), 200 mM NaCl, 10% Glycerol, and 5 mM DTT by PD-10 column (GE-Healthcare).
To prepare BODIPY FL (fluorescent dye) GDP-bound KRAS G12D protein, 50 μM KRAS G12D protein was incubated with 0.5 mM BODIPY FL GDP in a loading buffer (20 mM Tris-HCl (pH 7.5), 50 mM NaCl, 1 mM DTT and 2.5 mM EDTA) for 1 hour on ice. After the incubation, MgCl2 was added to a final concentration of 10 mM, followed by incubation at room temperature for 30 minutes.
The mixture was allowed to pass through a NAP-5 column to remove free nucleotides and purified BODIPY FL GDP-bound KRAS G12D protein was used for compound evaluation.
For the measurement of the inhibitory activity of compounds on GDP-GTP exchange rate of recombinant KRAS G12D, BODIPY FL GDP-bound KRAS G12D protein was incubated with various concentrations of compound in a reaction buffer (20 mM Tris-HCl (pH 7.5), 100 mM NaCl, 1 mM MgCl2, 2 mM DTT, 0.1% Tween 20) at 25° C. for 1 hour. […]

Sequence of KRAS G12D (P01116 other isoform, or with tags, fused parts or gaps G12D (already in the parent)): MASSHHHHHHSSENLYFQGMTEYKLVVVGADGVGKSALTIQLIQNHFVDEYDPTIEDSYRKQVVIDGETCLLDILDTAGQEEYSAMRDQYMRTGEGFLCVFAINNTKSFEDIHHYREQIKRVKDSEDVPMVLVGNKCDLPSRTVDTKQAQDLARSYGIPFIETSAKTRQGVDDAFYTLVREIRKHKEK

In the case of `Oc1cc(N2CCc3c(nc(OCC4(CN5CC[C@@H](F)C5)CC4)nc3N3CC4CCC(C3)N4)C2)c2c(I)cccc2c1` [Example 8, 4-(4-(3,8-diazabicyclo[3.2.1]octan-3-yl)-2-((1-(((R)-3-fluoropyrrolidin-1-yl)methyl)cyclopropyl)methoxy)-5,8-dihydropyrido[3,4-d]pyrimidin-7(6H)-yl)-5-iodonaphthalen-2-ol], the results for the IC50 (in assay [1]; against KRAS G12D) were 470 nM and 0.9 nM, respectively.

In the case of `CN(C)CC1(COc2nc3c(c(N4CC5CCC(C4)N5)n2)CCN(c2cc(O)cc4cccc(I)c24)C3)CC1` [Example 7, 4-(4-(3,8-diazabicyclo[3.2.1]octan-3-yl)-2-((1-((dimethylamino)methyl)cyclopropyl)methoxy)-5,8-dihydropyrido[3,4-d]pyrimidin-7(6H)-yl)-5-iodonaphthalen-2-ol], the IC50 in assay [1] is 580 nM; at KRAS G12D, 0.7 nM.

Take `CN(C)CC1(COc2nc(N3CC4CCC(C3)N4)c3cc(Cl)c(-c4cc(O)cc5ccccc45)c(F)c3n2)CC1` [Example 14, 4-(4-(3,8-diazabicyclo[3.2.1]octan-3-yl)-6-chloro-2-((1-((dimethylamino)methyl)cyclopropyl)methoxy)-8-fluoroquinazolin-7-yl)naphthalen-2-ol]: the 50% inhibitory concentration (IC50) amounted to 1270 nM in assay [1] and 8.9 nM against KRAS G12D.

As for `CO[C@@H]1C[C@@H](COc2nc3c(c(N4CC5CCC(C4)N5)n2)CCN(c2cc(O)cc4cccc(Br)c24)C3)N(C)C1` [Example 32, 4-(4-(3,8-diazabicyclo[3.2.1]octan-3-yl)-2-(((2S,4R)-4-methoxy-1-methylpyrrolidin-2-yl)methoxy)-5,8-dihydropyrido[3,4-d]pyrimidin-7(6H)-yl)-5-bromonaphthalen-2-ol], the figures for the IC50 (in assay [1]; on KRAS G12D) were 1080 nM and 3.2 nM, respectively.

For the molecule `CN(C)CC1(COc2nc3c(c(N4CC5CCC(C4)N5)n2)COC(c2cc(O)cc4cccc(Br)c24)C3)CC1` (centres unmarked) [Example 37, 4-(4-(3,8-diazabicyclo[3.2.1]octan-3-yl)-2-((1-((dimethylamino)methyl)cyclopropyl)methoxy)-7,8-dihydro-5H-pyrano[4,3-d]pyrimidin-7-yl)-5-bromonaphthalen-2-ol], the figures for the IC50 (in assay [1]; on KRAS G12D) were 2940 nM and 9.6 nM, respectively.

For the molecule `CN(C)CC1(COc2nc3c(c(N4CC5CCC(C4)N5)n2)CCN(c2nc(N)cc4cccc(Br)c24)C3)CC1` [Example 22, 1-(4-(3,8-diazabicyclo[3.2.1]octan-3-yl)-2-((1-((dimethylamino)methyl)cyclopropyl)methoxy)-5,8-dihydropyrido[3,4-d]pyrimidin-7 (6H)-yl) -8-bromoisoquinolin-3-amine], the concentration for half-maximal inhibition (IC50) stood at 4090 nM in assay [1] and 13 nM against KRAS G12D.

Turning to `Oc1cc(N2CCc3c(nc(OCC4(CN5CCOCC5)CC4)nc3N3C[C@@H]4CC[C@H]3CN4)C2)c2c(Br)cccc2c1` [Example 28, 4-(4-((1S,4S)-2,5-diazabicyclo[2.2.2]octan-2-yl)-2-((1-(morpholinomethyl)cyclopropyl)methoxy)-5,8-dihydropyrido[3,4-d]pyrimidin-7(6H)-yl)-5-bromonaphthalen-2-ol], the results for the half-inhibitory concentration (IC50) (in assay [1]; against KRAS G12D) were 820 nM and 3.6 nM, respectively.

Turning to `Cc1cccc2cc(O)cc(N3CCc4c(nc(OCC5(CN6CC[C@@H](F)C6)CC5)nc4N4CC5CCC(C4)N5)C3)c12` [Example 5, 4-(4-(3,8-diazabicyclo[3.2.1]octan-3-yl)-2-((1-(((R)-3-fluoropyrrolidin-1-yl)methyl)cyclopropyl)methoxy)-5,8-dihydropyrido[3,4-d]pyrimidin-7(6H)-yl)-5-methylnaphthalen-2-ol], the IC50 in assay [1] worked out at 1170 nM; against KRAS G12D, 6.2 nM.

As to `C#Cc1cccc2cc(O)cc(C(=O)N3Cc4nc(OCC5(CN6CC[C@@H](F)C6)CC5)nc(N5CC6CCC(C5)N6)c4C3)c12` [Example 11, (4-(3,8-diazabicyclo[3.2.1]octan-3-yl)-2-((1-(((R)-3-fluoropyrrolidin-1-yl)methyl)cyclopropyl)methoxy)-5,7-dihydro-6H-pyrrolo[3,4-d]pyrimidin-6-yl) (8-ethynyl-3-hydroxynaphthalen-1-yl)methanone], the IC50 in assay [1] worked out at 7850 nM; against KRAS G12D, 1.4 nM.

With `C#Cc1cccc2cccc(C3CCc4c(nc(OCC5(CN(C)C)CC5)nc4N4CC5CCC(C4)N5)C3)c12` (centres unmarked) [Example 24, 1-(1-(((4-(3,8-diazabicyclo[3.2.1]octan-3-yl)-7-(8-ethynylnaphthalen-1-yl)-5,6,7,8-tetrahydroquinazolin-2-yl)oxy)methyl)cyclopropyl)-N,N-dimethylmethanamine], the IC50 in assay [1] was determined as 1220 nM; on KRAS G12D it was 17 nM.
